According to patent US20070270352A1, “Method of Treatment” (priority 2002, published 2007):
Like-named read-outs stand apart in the source and are kept apart here.

Key:
[1] = test system: p75^NTR (i.e. Chopper)-mediated cell apoptosis; type: cell-based, mice
GIRK 1 and 4 subunits = target: T1, GIRK 1 and 4 subunits (Homo sapiens, UniProt P48544+P48549); conditions: cited from earlier work
T1 sequence (P48544 whole entry, looked up): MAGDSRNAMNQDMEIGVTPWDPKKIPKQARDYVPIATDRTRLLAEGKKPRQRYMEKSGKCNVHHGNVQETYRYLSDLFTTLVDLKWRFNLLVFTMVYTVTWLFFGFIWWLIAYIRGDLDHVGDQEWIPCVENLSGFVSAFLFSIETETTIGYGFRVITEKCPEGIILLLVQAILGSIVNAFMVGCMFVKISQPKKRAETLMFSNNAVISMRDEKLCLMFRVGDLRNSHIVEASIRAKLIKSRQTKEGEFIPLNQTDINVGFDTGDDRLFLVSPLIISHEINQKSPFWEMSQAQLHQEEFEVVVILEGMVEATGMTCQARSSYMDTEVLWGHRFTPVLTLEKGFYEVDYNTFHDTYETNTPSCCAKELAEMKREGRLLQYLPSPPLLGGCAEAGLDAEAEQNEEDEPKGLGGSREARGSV
T1 sequence (P48549 whole entry, looked up): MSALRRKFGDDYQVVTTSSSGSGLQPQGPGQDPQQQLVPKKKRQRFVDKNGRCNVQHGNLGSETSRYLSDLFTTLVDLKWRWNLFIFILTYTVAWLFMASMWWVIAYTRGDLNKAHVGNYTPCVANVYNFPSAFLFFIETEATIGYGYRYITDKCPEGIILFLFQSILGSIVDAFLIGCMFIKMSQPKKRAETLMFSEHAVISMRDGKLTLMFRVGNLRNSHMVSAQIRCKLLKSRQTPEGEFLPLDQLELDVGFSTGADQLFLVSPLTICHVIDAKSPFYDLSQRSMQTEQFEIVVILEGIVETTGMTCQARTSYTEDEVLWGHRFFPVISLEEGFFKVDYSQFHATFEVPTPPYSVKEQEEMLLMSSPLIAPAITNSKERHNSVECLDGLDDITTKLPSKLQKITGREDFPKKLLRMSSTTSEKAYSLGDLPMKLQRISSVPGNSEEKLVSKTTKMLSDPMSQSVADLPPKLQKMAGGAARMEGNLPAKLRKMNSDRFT

ROMK1 channels = target: T2, ROMK1 channels (Homo sapiens, UniProt P48048); conditions: cited from earlier work
T2 sequence (P48048 whole entry, looked up): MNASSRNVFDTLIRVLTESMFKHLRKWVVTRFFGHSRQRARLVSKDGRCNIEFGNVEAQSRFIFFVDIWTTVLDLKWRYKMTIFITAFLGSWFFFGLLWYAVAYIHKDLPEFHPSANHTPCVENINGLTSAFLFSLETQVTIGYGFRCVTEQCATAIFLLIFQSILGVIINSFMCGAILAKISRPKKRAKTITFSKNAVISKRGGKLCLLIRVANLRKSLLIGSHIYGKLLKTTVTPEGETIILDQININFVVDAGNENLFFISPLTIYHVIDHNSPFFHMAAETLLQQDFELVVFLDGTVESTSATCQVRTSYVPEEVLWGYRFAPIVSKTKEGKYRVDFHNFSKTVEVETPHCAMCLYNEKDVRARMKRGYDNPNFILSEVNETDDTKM

[2] = test system: p75^NTR-mediated cell apoptosis; assay: Caspase activity after injection into the eye of chick embryos (FIG. 11); type: in vivo; conditions: injected into the eye of chick embryos; 500 nM of Tertiapin
Protocol: FIG. 11 is a graphical representation showing that p75^NTR-mediated cell apoptosis requires functional GIRK channels. Apoptotic activity is measured in terms of caspase activity in the presence of Tertiapin, anti-NGF antibody and Iberiotoxin.
In FIG. 11, Tertiapin was injected into the eye of chick embryos. Anti-NGF antibodies and Iberiotoxin ([…]) were also tested. Apoptotic activity was measured using caspase activity.

[3] = p75NTR (Chopper)-mediated apoptosis of neuronal cells, neuronal viability after Chopper peptide, inhibitor added just prior or pretreated

For 2-APB, the “Prevention of killing?” value [1, 3] was “No”.
For Nc1ccncc1 [4-aminopyridine], the “Prevention of killing?” value [1, 3] was “Toxic”.
For CC(=O)OCOC(=O)CN(CC(=O)OCOC(C)=O)c1ccccc1OCCOc1ccccc1N(CC(=O)OCOC(C)=O)CC(=O)OCOC(C)=O [BAPTA-AM], the “Prevention of killing?” value [1, 3] was “Yes”.
With O=C(O)CN(CC(=O)O)c1ccccc1OCCOc1ccccc1N(CC(=O)O)CC(=O)O [BAPTA] the “Prevention of killing?” value [1, 3] was “No”.
With NCC(CC(=O)O)c1ccc(Cl)cc1 (stereo not shown) [Baclofen] the cell survival ([1]; GABA receptor agonist activating GIRKs (FIG. 10 model)) was “promotion of cell survival”.
In the case of CCCCN1CCCCC1C(=O)Nc1c(C)cccc1C (stereo not shown) [Bupivicane], the “Chopper domain-mediated killing / p75^NTR (i.e. Chopper)-mediated cell apoptosis” value ([1]; FIGS. 3-7, 10) is reported as “inhibited” and the “Prevention of killing?” value [1, 3] is reported as “Yes”.
For CC[N+](CC)(CC)CC.[Cl-] [TEA, Tetraethylammonium chloride], the “Chopper domain-mediated killing / p75^NTR (i.e. Chopper)-mediated cell apoptosis” value [1] was “inhibited” and the “Prevention of killing?” value [1] was “Yes”.
With Charybdotoxin the “Chopper domain-mediated killing / p75^NTR (i.e. Chopper)-mediated cell apoptosis” value ([1]; FIGS. 3-7, 10) was “inhibited” and the “Prevention of killing?” value [1, 3] was “Yes”.
For “Iberiotoxin (QFTDVDCSVSKECWSVCKDLFGVDRGKCMGKKCRCYQ; UniProt P24663 1-37, looked up)”, the “Prevention of killing?” value [1, 3] was “No”.
In the case of Margatoxin, the “Prevention of killing?” value [1, 3] is reported as “No”.
With Pertussis toxin [Pertusis toxin] the “Chopper domain-mediated killing / p75^NTR (i.e. Chopper)-mediated cell apoptosis” value ([1]; FIGS. 3-7, 10) was “still results in Chopper-mediated killing” and the “Prevention of killing?” value [1, 3] was “No”.
In the case of TTX, the “Prevention of killing?” value [1] is reported as “No”.
In the case of Tertiapin (ALCNCNRIIIPHMCWKKCGKK), the affinity of inhibition (GIRK 1 and 4 subunits) is listed as “nanomolar affinities”, the affinity of inhibition (ROMK1 channels) is listed as “nanomolar affinities” and the “Chopper domain-mediated killing / p75^NTR (i.e. Chopper)-mediated cell apoptosis” value ([1]; FIGS. 3-7, 10) is listed as “inhibited”. The “Prevention of killing?” value [1, 3] was “Yes” and the “caspase activity (apoptotic activity)” value [2] was “effective in reducing caspase activity”.
For δ-Dendrotoxin, the “Prevention of killing?” value [1, 3] was “No”.
